Structures are written as SMILES. Where a name gives a salt, the structure may show the parent alone.

This is an account of results in US20220226299A1 (NIPPON CHEMIPHAR CO., LTD., priority 2019, published 2022).

The assay has as its target T1, human Cav3.2 channels (Homo sapiens, UniProt O95180).
T1 construct: human Cav3.2 channel ORF (Open Reading Frame) gene; expressed in transfected cells; host or cells: HEK293 cells (ATCC No. CRL-1573), pcDNA3.1(+) plasmid
In words: T-type calcium blocking action: intracellular calcium (Fluo-4 AM fluorescence) in HEK293 cells steadily expressing human Cav3.2 channels. Type of assay: cell-based. As to conditions: HEK293 cells expressing human Cav3.2; KCl-stimulated calcium influx, Fluo-4 fluorescence; Tables 1 to 3. In outline: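 Fluo-4 AM-loaded stable HEK293 cells were preincubated 15 min at RT with compound (0.1% DMSO final) in choline-based buffer (pH 7.3). Gramicidin was added, then KCl-induced calcium influx was read at 485/510 nm for 10 s. Percent block came from peak rise over baseline, and IC50 from log-concentration plots.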
(A change in cytosolic calcium serves as a functional read-out for many receptors and channels.)

T1 sequence (O95180 whole entry): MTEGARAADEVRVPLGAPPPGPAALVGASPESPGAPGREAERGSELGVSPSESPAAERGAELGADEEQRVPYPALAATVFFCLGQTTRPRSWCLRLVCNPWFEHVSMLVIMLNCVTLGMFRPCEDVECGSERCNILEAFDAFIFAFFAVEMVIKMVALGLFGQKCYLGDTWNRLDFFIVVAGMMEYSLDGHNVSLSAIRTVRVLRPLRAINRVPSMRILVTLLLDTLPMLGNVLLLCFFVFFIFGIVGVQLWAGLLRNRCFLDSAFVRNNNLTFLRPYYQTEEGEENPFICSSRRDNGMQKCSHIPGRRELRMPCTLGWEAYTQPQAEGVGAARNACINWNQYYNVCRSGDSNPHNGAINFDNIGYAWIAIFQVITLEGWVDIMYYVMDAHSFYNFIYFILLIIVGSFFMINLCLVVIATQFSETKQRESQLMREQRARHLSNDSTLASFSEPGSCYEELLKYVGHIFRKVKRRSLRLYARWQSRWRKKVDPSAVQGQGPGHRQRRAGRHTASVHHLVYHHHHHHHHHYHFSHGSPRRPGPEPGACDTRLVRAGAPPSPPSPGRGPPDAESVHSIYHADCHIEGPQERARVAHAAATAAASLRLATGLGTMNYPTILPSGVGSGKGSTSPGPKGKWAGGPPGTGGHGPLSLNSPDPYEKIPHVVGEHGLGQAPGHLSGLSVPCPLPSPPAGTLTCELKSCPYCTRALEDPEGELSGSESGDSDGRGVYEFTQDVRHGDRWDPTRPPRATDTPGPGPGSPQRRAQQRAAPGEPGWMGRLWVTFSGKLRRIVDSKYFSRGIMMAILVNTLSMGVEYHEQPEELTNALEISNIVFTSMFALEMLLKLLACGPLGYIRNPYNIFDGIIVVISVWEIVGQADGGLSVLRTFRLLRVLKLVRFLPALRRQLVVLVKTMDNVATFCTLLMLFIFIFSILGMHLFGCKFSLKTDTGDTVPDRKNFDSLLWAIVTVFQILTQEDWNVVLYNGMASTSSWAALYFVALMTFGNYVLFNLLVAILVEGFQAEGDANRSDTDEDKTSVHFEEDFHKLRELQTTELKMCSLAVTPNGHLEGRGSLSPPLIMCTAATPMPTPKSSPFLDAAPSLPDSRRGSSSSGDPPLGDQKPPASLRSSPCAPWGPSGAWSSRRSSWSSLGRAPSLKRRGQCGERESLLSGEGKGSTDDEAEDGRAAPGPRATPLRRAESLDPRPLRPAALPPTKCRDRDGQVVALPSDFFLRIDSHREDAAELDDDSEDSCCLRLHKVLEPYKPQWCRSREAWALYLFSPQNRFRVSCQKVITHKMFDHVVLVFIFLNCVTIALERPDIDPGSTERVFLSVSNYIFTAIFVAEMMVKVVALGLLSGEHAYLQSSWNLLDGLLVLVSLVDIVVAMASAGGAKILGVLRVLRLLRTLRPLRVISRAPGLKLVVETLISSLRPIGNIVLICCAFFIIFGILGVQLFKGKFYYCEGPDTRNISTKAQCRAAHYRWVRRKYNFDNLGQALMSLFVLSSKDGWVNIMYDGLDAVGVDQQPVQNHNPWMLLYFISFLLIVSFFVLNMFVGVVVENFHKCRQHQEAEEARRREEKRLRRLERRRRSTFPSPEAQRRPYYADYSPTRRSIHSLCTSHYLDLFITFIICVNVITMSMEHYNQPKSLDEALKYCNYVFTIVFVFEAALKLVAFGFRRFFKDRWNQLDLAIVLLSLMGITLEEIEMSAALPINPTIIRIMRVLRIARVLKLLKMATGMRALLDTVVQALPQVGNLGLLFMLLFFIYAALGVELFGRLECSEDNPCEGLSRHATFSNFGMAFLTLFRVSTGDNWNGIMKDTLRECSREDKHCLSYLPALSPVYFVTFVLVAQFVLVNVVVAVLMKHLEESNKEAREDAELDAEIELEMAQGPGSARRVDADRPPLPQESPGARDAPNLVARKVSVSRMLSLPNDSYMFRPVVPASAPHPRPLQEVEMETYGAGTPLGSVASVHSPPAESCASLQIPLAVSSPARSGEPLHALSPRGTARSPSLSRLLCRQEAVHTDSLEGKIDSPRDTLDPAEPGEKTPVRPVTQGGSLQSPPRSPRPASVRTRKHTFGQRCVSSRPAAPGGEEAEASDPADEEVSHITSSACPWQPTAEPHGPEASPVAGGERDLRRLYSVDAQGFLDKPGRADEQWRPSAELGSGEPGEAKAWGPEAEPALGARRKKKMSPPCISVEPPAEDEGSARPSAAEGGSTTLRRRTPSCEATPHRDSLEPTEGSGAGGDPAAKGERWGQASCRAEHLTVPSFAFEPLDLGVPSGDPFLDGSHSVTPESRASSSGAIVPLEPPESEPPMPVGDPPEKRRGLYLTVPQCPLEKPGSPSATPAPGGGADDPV

Regarding `O=C(Cc1ccc(C(F)(F)F)cn1)N[C@@H]1CCN(c2cncc(C(F)(F)F)c2)C1` [Example 2, (R)-2-(5-(trifluoromethyl)pyridin-2-yl)-N-(1-(5-(trifluoromethyl)pyridin-3-yl)pyrrolidin-3-yl)acetamide], the IC50 is 1300 nM. As for `O=C(Cc1ccc2cccnc2c1)N[C@@H]1CCN(c2cncc(C(F)(F)F)c2)C1` [Example 79, (R)-2-(quinolin-7-yl)-N-(1-(5-(trifluoromethyl)pyridin-3-yl)pyrrolidin-3-yl)acetamide hydrochloride], the figure is 150 nM; as for `CN(C)c1ccc(CC(=O)N[C@@H]2CCN(c3cncc(C(F)(F)F)c3)C2)cc1` [Example 29, (R)-2-(4-(dimethylamino)phenyl)-N-(1-(5-(trifluoromethyl)pyridin-3-yl)pyrrolidin-3-yl)acetamide], 40 nM; as for `CC(=O)Nc1ccc(CC(=O)N[C@@H]2CCN(c3cncc(C(F)(F)F)c3)C2)cc1` [Example 35, (R)-2-(4-acetamidophenyl)-N-(1-(5-(trifluoromethyl)pyridin-3-yl)pyrrolidin-3-yl)acetamide], 630 nM. Under `CC(C)(C(=O)N[C@@H]1CCN(c2cncc(C(F)(F)F)c2)C1)c1ccc(C2CC2)cc1` [Example 135, (R)-2-(4-cyclopropylphenyl)-2-methyl-N-(1-(5-(trifluoromethyl)pyridin-3-yl)pyrrolidin-3-yl)propanamide] stands 230 nM; under `O=C(N[C@@H]1CCN(c2cnc(C(F)(F)F)nc2)C1)[C@H]1C[C@@H]1c1nc2ccccc2[nH]1` [Example 70, (1S,2S)-2-(1H-benzo[d]imidazol-2-yl)-N—((R)-1-(2-(trifluoromethyl)pyrimidin-5-yl)pyrrolidin-3-yl)cyclopropane-1-carboxyamide], 210 nM; under `O=C(Cc1ccc(C2CC2)cc1)N[C@@H]1CCN(c2cc(C(F)(F)F)c[n+]([O-])c2)C1` [Example 134A, (R)-3-(3-(2-(4-cyclopropylphenyl)acetamido)pyrrolidin-1-yl)-5-(trifluoromethyl)pyridine 1-oxide], 930 nM. Under `O=C(N[C@@H]1CCN(c2cncc(C(F)(F)F)c2)C1)C1CC1c1cc(Cl)cc(Cl)c1` (single isomer, unassigned) [Example 99B] stands 480 nM. For the compound `NC(C(=O)N[C@@H]1CCN(c2cncc(C(F)(F)F)c2)C1)c1ccc(C2CC2)cc1` (single isomer, unassigned) [Example 137A], the IC50 turned out to be 100 nM. As for `CC(C)Cc1ccc(C(C)C(=O)N[C@@H]2CCN(c3cncc(C(F)(F)F)c3)C2)cc1` (stereo partly drawn) [Example 17, 2-(4-Isobutylphenyl)-N—((R)-1-(5-(trifluoromethyl)pyridin-3-yl)pyrrolidin-3-yl)propanamide], the figure is 380 nM; as for `O=C(N[C@H]1CCN(c2ccc(C(F)(F)F)cc2)C1)C1CC1c1nc2ccccc2[nH]1` (single isomer, unassigned) [Example 53], 1000 nM; as for `O=C(Cc1ccc(C2CC2)cc1)N[C@@H]1CCN(c2cc(F)cc(C(F)(F)F)c2)C1` [Example 136, (R)-2-(4-cyclopropylphenyl)-N-(1-(3-fluoro-5-(trifluoromethyl)phenyl)pyrrolidin-3-yl)acetamide], 1500 nM.

Consider `O=C(Cc1ccc(C2CC2)cc1)N[C@@H]1CCN(c2nc(C(F)(F)F)co2)C1` [Example 80, (R)-2-(4-cyclopropylphenyl)-N-(1-(4-(trifluoromethyl)oxazol-2-yl)pyrrolidin-3-yl)acetamide], for which the IC50 was 720 nM. With `Cc1ncc(N2CC[C@@H](NC(=O)Cc3ccc(C4CC4)cc3)C2)cc1C(F)(F)F` [Example 18, (R)-2-(4-cyclopropylphenyl)-N-(1-(6-methyl-5-(trifluoromethyl)pyridin-3-yl)pyrrolidin-3-yl)acetamide], the IC50 was 90 nM.

As for `O=C(Cc1ccc(N2C3CCC2COC3)cc1)N[C@@H]1CCN(c2cncc(C(F)(F)F)c2)C1` [Example 149, 2-(4-(3-Oxa-8-azabicyclo[3.2.1]octan-8-yl)phenyl)-N—((R)-1-(5-(trifluoromethyl)pyridin-3-yl)pyrrolidin-3-yl) acetamide], the IC50 was determined as 69 nM. Under `Cc1ncoc1-c1ccc(CC(=O)N[C@@H]2CCN(c3cncc(C(F)(F)F)c3)C2)cc1` [Example 133, (R)-2-(4-(4-methyloxazol-5-yl)phenyl)-N-(1-(5-(trifluoromethyl)pyridin-3-yl)pyrrolidin-3-yl)acetamide] stands 55 nM. Under `O=C(Cc1ccc(C2CC2)cc1)N[C@@H]1CCN(c2cc(C(F)(F)F)ccn2)C1` [Example 182, (R)-2-(4-cyclopropylphenyl)-N-(1-(4-(trifluoromethyl)pyridin-2-yl)pyrrolidin-3-yl)acetamide] stands 720 nM; under `O=C(Cc1ccc2cc[nH]c2c1)NC1CN(c2cncc(C(F)(F)F)c2)C1` [Example 90, 2-(1H-indol-6-yl)-N-(1-(5-(trifluoromethyl)pyridin-3-yl)azetidin-3-yl)acetamide], 130 nM; under `CC(C(=O)N[C@@H]1CCN(c2ccc(C(F)(F)F)nc2)C1)c1ccc(C(F)(F)F)cc1` (stereo partly drawn) [Example 185, 2-(4-(Trifluoromethyl)phenyl)-N—((R)-1-(6-(trifluoromethyl)pyridin-3-yl)pyrrolidin-3-yl)propanamide], 1400 nM. With `O=C(Cc1ccc(C2CC2)cc1)N[C@@H]1CCN(c2cccc(C(F)(F)F)n2)C1` [Example 179, (R)-2-(4-cyclopropylphenyl)-N-(1-(6-(trifluoromethyl)pyridin-2-yl)pyrrolidin-3-yl)acetamide], the IC50 stood at 240 nM.

As for `O=C(Cc1ccc(OC(F)(F)F)cc1)N[C@@H]1CCN(c2cncc(C(F)(F)F)c2)C1` [Example 115, (R)-2-(4-(trifluoromethoxy)phenyl)-N-(1-(5-(trifluoromethyl)pyridin-3-yl)pyrrolidin-3-yl)acetamide], the IC50 is 91 nM. As for `O=C(Cc1ccc(C(F)(F)F)cc1)N[C@@H]1CCN(c2cncc(C(F)(F)F)c2)C1` [Example 123, (R)-2-(4-(trifluoromethyl)phenyl)-N-(1-(5-(trifluoromethyl)pyridin-3-yl)pyrrolidin-3-yl)acetamide], the IC50 stood at 44 nM. As for `Cc1nc2cc(CC(=O)N[C@@H]3CCN(c4cncc(C(F)(F)F)c4)C3)ccc2o1` [Example 153, (R)-2-(2-methylbenzo[d]oxazol-5-yl)-N-(1-(5-(trifluoromethyl)pyridin-3-yl)pyrrolidin-3-yl)acetamide], the figure is 570 nM; as for `O=C(Cc1ccc(N2CCC3(CC2)OCCO3)cc1)N[C@@H]1CCN(c2cncc(C(F)(F)F)c2)C1` [Example 101, (R)-2-(4-(1,4-dioxa-8-azaspiro[4.5]decan-8-yl)phenyl)-N-(1-(5-(trifluoromethyl)pyridin-3-yl)pyrrolidin-3-yl)acetamide], 100 nM. Under `O=C(N[C@@H]1CCN(c2cncc(C(F)(F)F)c2)C1)[C@H]1C[C@@H]1c1nc2ccccc2[nH]1` [Example 71, (1S,2S)-2-(1H-benzo[d]imidazol-2-yl)-N—((R)-1-(5-(trifluoromethyl)pyridin-3-yl)pyrrolidin-3-yl)cyclopropane-1-carboxyamide] stands 7.9 nM; under `O=C(Cc1ccc(C2CC2)cc1)N[C@@H]1CCN(c2cc(OCC(F)(F)F)ccn2)C1` [Example 127, (R)-2-(4-cyclopropylphenyl)-N-(1-(4-(2,2,2-trifluoroethoxy)pyridin-2-yl)pyrrolidin-3-yl)acetamide], 1100 nM.

What is called IC50 is the concentration at which inhibition is half-maximal.
